Among the data in patent publication EP4722213A1, “NITROGEN-CONTAINING FUNCTIONAL GROUP-SUBSTITUTED PYRIDAZINOPYRIDONE DERIVATIVE AND USE THEREOF” (Sichuan Huiyu Pharmaceutical Co., Ltd., priority 2023, dated 2024) are IC50, half-life and CLint scaled values, retold here.

One series deals with T1, SOS1 (Homo sapiens, UniProt Q07889).
T1 sequence (Q07889 1-1333): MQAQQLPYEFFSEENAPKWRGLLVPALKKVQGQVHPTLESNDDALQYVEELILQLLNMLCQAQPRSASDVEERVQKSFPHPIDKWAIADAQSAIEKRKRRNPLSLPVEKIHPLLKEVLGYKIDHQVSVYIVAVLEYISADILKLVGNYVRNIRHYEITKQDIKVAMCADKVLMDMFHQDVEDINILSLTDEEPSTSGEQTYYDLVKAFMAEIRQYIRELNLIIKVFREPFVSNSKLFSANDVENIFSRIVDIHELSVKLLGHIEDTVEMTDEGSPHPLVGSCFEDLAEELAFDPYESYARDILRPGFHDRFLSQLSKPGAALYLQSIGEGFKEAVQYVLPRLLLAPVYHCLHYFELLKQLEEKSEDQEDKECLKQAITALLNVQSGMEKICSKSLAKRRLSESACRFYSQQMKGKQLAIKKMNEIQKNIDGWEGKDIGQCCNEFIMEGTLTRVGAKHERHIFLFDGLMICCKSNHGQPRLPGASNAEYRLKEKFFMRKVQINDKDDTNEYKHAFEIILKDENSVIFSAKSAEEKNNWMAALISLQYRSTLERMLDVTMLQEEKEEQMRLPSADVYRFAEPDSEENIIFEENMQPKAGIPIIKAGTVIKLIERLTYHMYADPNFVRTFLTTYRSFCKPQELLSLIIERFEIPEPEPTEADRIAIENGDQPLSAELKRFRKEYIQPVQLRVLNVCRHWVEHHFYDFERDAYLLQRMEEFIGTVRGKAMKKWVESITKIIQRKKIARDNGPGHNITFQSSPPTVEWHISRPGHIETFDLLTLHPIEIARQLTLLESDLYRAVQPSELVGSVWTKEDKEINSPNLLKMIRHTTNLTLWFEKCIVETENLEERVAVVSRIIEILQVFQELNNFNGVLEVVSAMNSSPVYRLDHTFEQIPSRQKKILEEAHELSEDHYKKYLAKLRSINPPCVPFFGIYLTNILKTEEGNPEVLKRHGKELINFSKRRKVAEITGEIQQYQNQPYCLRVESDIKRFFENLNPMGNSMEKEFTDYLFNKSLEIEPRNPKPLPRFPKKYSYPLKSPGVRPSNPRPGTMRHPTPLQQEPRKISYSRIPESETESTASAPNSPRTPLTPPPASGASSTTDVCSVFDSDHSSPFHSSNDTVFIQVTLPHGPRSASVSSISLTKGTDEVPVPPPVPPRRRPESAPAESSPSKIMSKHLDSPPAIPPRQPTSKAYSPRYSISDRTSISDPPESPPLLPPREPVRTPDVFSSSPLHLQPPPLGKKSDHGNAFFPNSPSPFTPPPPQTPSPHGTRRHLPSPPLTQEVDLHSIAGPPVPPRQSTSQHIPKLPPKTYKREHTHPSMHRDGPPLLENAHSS
The series is described as follows: biochemical.

Series [1] is described as follows: Rat liver microsomal metabolic stability. Conditions: rat liver microsomes. Type of series: in vitro ADME. A digest of the protocol:
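Rat liver microsomes (1 mg/mL working solution) with test compound (working solution 100 µM) were pre-incubated 5 min at 37 °C, then started with NADPH (4.0 mM working solution). Residual compound measured by LC-MS/MS over time. T1/2 taken from first-order decay, scaled to CLint and hepatic CL with fu = 1.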

The mark [2] stands for this setting: calculated from T1/2, fu defaulted to 1, read-out: CL(liver).

Molecules are shown by their SMILES. Some results are limits rather than exact numbers.

As to `CNc1nnc(N[C@H](C)c2cccc(C(F)F)c2F)c2cn(C3(C)CC3)c(=O)cc12.O=CO` [Example 9, (R)-4-((1-(3-(difluoromethyl)-2-fluorophenyl)ethyl)amino)-1-(methylamino)-6-(1-methylcyclopropyl) pyrido[3,4-d]pyridazin-7(6H)-one formate], 4.5 nM corresponded to half-maximal inhibition on SOS1 (IC50). For the same compound, in series [1] (NADPH, 37°C), the half-life at 1 µM came out at 4.33 h. Also, the CLint scaled at 1 µM in series [1] (setting [2]) was 8.2 mL/min/kg.

`CC(C)Nc1nnc(N[C@H](C)c2cccc(C(F)F)c2F)c2cn(C3(C)CC3)c(=O)cc12.O=CO` [Example 12, (R)-4-((1-(3-(difluoromethyl)-2-fluorophenyl)ethyl)amino)-1-(isopropylamino)-6-(1-methylcyclopropyl) pyrido[3,4-d]pyridazin-7(6H)-one formate] came in with an IC50 against SOS1 of 4.9 nM. Further, the half-life at 1 µM in series [1] (NADPH, 37°C) worked out at 2.5 h. Besides, in series [1] (setting [2]), the CLint scaled at 1 µM was 12.8 mL/min/kg.

Compound `CNc1nnc(N[C@H](C)c2cccc(C(F)(F)F)c2C)c2cn(C3CC3)c(=O)cc12` [Example 52, (R)-6-cyclopropyl-4-((1-(2-methyl-3-(trifluoromethyl)phenyl)ethyl)amino)-1-(methylamino)pyrid o[3,4-d]pyridazin-7(6H)-one] gave an IC50 at SOS1 of 5.7 nM. Also, the half-life at 1 µM in series [1] (NADPH, 37°C) turned out to be 1.41 h. In addition, the CLint scaled at 1 µM in series [1] (setting [2]) was 19.2 mL/min/kg.

On SOS1, `CNc1nnc(N[C@H](C)c2cccc(C(F)(F)F)c2C)c2cn(C3(C)CC3)c(=O)cc12` [Example 73, (R)-4-((1-(2-methyl-3-(trifluoromethyl)phenyl)ethyl)amino)-1-(methylamino)-6-(1-methylcyclopropyl) pyrido[3,4-d]pyridazin-7(6H)-one] gave an IC50 of 4.4 nM. The compound further came in with a half-life at 1 µM in series [1] (NADPH, 37°C) of 1.59 h. In series [1] (setting [2]), the CLint scaled at 1 µM is 17.7 mL/min/kg.

As for `C[C@@H](Nc1nnc(N2CCN(C)CC2)c2cc(=O)n(C3CC3)cc12)c1cccc(C(F)F)c1F` [Example 77], the half-inhibitory concentration (IC50) against SOS1 turned out to be 5.9 nM. In addition, the half-life in series [1] (NADPH, 37°C) was over 5 h. Moreover, the CLint scaled in series [1] (setting [2]) is under 7.23 mL/min/kg.

In the case of `C[C@@H](Nc1nnc(N2CCN(C)CC2)c2cc(=O)n(C3(C)CC3)cc12)c1cccc(C(F)F)c1F.O=CO` [Example 80, (R)-4-((1-(3-(difluoromethyl)-2-fluorophenyl)ethyl)amino)-6-(1-methylcyclopropyl)-1-(4-methylpiperazin-1-yl)pyrido[3,4-d]pyridazin-7(6H)-one formate], the IC50 on SOS1 was determined as 4.5 nM. The compound also returned a half-life at 1 µM in series [1] (NADPH, 37°C) of 2.68 h. Further, the CLint scaled at 1 µM in series [1] (setting [2]) was 12.1 mL/min/kg.

In turn, `C[C@@H](Nc1nnc(N2CCN(C)CC2)c2cc(=O)n(C3CCC3)cc12)c1cccc(C(F)F)c1F` [Example 88, (R)-6-cyclobutyl-4-((1-(3-(difluoromethyl)-2-fluorophenyl)ethyl)amino)-1-(4-methylpiperazin-1-yl)pyrido[3,4-d]pyridazin-7(6H)-one] showed an IC50 against SOS1 of 4.5 nM. Besides, the half-life at 1 µM in series [1] (NADPH, 37°C) is 2.13 h. For the same compound, in series [1] (setting [2]), the CLint scaled at 1 µM is 14.4 mL/min/kg.

The compound `CCN1CCN(c2nnc(N[C@H](C)c3cccc(C(F)F)c3F)c3cn(C4CC(F)(F)C4)c(=O)cc23)CC1` [Example 98, (R)-6-(3,3-difluorocyclobutyl)-4-((1-(3-(difluoromethyl)-2-fluorophenyl)ethyl)amino)-1-(4-ethylpiperazin-1-yl)pyrido[3,4-d]pyridazin-7(6H)-one] yielded an IC50 at SOS1 of 4.3 nM. The compound also yielded a half-life at 1 µM in series [1] (NADPH, 37°C) of 3.12 h. The CLint scaled at 1 µM in series [1] (setting [2]) is 10.8 mL/min/kg.

For `CCN1CCN(c2nnc(N[C@H](C)c3cccc(C(F)F)c3F)c3cn(N4CCOCC4)c(=O)cc23)CC1` [Example 109, (R)-4-((1-(3-(difluoromethyl)-2-fluorophenyl)ethyl)amino)-1-(4-ethylpiperazin-1-yl)-6-morpholinopyrido[3 ,4-d]pyridazin-7(6H)-one], the half-maximal inhibitory concentration (IC50) against SOS1 was found to be 4.2 nM. The compound also returned a half-life at 1 µM in series [1] (NADPH, 37°C) of over 5 h. The CLint scaled at 1 µM in series [1] (setting [2]) is under 7.23 mL/min/kg.

`C[C@@H](Nc1nnc(N2CCN(C)CC2)c2cc(=O)n(N3CCOCC3)cc12)c1cccc(C(F)F)c1F` [Example 110, (R)-4-((1-(3-(difluoromethyl)-2-fluorophenyl)ethyl)amino)-1-(4-methylpiperazin-1-yl)-6-morpholinopyrido[3 ,4-d]pyridazin-7(6H)-one] displayed an IC50 at SOS1 of 3.3 nM. Also, the half-life at 1 µM in series [1] (NADPH, 37°C) was over 5 h. The CLint scaled at 1 µM in series [1] (setting [2]) was under 7.23 mL/min/kg.

The compound `CC(C)N1CCN(c2nnc(N[C@H](C)c3cccc(C(F)F)c3F)c3cn(N4CCOCC4)c(=O)cc23)CC1` [Example 111, (R)-4-((1-(3-(difluoromethyl)-2-fluorophenyl)ethyl)amino)-1-(4-isopropylpiperazin-1-yl)-6-morpholinopyrido[3 ,4-d]pyridazin-7(6H)-one] had an IC50 on SOS1 of 4.4 nM. Moreover, in series [1] (NADPH, 37°C), the half-life at 1 µM was over 5 h. For the same compound, in series [1] (setting [2]), the CLint scaled at 1 µM is under 7.23 mL/min/kg.

Turning to `CCN1CCN(c2nnc(N[C@H](C)c3cccc(C(F)F)c3F)c3cn(C4CCC4)c(=O)cc23)CC1` [Example 112, (R)-6-cyclobutyl-4-((1-(3-(difluoromethyl)-2-fluorophenyl)ethyl)amino)-1-(4-ethylpiperazin-1-yl)pyrido[3,4-d]pyridazin-7(6H)-one], on SOS1, the IC50 was found to be 5 nM. The half-life at 1 µM in series [1] (NADPH, 37°C) was determined as 3.32 h. For the same compound, the CLint scaled at 1 µM in series [1] (setting [2]) is 10.2 mL/min/kg.

In turn, `C[C@@H](Nc1nnc(N2CCN(C3CCCC3)CC2)c2cc(=O)n(N3CCOCC3)cc12)c1cccc(C(F)F)c1F` [Example 120, (R)-4-((1-(3-(difluoromethyl)-2-fluorophenyl)ethyl)amino)-1-(4-cyclopentylpiperazin-1-yl)-6-morpholinopyrido[3 ,4-d]pyridazin-7(6H)-one] returned an IC50 against SOS1 of 4.1 nM. The half-life at 1 µM in series [1] (NADPH, 37°C) is over 5 h. For the same compound, in series [1] (setting [2]), the CLint scaled at 1 µM was under 7.23 mL/min/kg.

Compound `CCN1CCN(c2nnc(N[C@H](C)c3cccc(C(F)F)c3F)c3cn(C4(C)CC4)c(=O)cc23)CC1` [Example 216, (R)-4-((1-(3-(difluoromethyl)-2-fluorophenyl)ethyl)amino)-1-(4-ethylpiperazin-1-yl)-6-(1-methylcyclopropyl) pyrido[3,4-d]pyridazin-7(6H)-one] returned an IC50 at SOS1 of 4.6 nM. Moreover, the half-life at 1 µM in series [1] (NADPH, 37°C) was 4.85 h. For the same compound, the CLint scaled at 1 µM in series [1] (setting [2]) is 7.43 mL/min/kg.

For the compound `CC(C)N1CCN(c2nnc(N[C@H](C)c3cccc(C(F)F)c3F)c3cn(C4(C)CC4)c(=O)cc23)CC1` [Example 217, (R)-4-((1-(3-(difluoromethyl)-2-fluorophenyl)ethyl)amino)-1-(4-isopropylpiperazin-1-yl)-6-(1-methylcyclopropyl) pyrido[3,4-d]pyridazin-7(6H)-one], half-maximal inhibition against SOS1 (IC50) required 4.6 nM. This compound returned a half-life at 1 µM in series [1] (NADPH, 37°C) of 4.33 h. Moreover, the CLint scaled at 1 µM in series [1] (setting [2]) is 8.18 mL/min/kg.

In turn, `C[C@@H](Nc1nnc(N2CCN(C(C)(C)C)CC2)c2cc(=O)n(C3(C)CC3)cc12)c1cccc(C(F)F)c1F.O=CO` [Example 222, (R)-1-(4-(tert-butyl)piperazin-1-yl)-4-((1-(3-(difluoromethyl)-2-fluorophenyl)ethyl)amino)-6-(1-methylcyclopropyl) pyrido[3,4-d]pyridazin-7(6H)-one formate] had an IC50 against SOS1 of 5 nM. In series [1] (NADPH, 37°C), this compound registered a half-life at 1 µM of 3.63 h. Also, in series [1] (setting [2]), the CLint scaled at 1 µM is 9.47 mL/min/kg.
